Measured values taken from patent US4210663A, “Halogen substituted benzopyran- and benzothiopyran-4-carboxylic acids” (Pfizer Inc., priority 1978, dated 1980).

Molecular target: T1, aldose reductase (Bos taurus, UniProt P16116)
T1 construct: partially purified aldose reductase enzyme obtained from calf lens; from tissue; host or cells: calf lens
Assay: inhibition of aldose reductase enzyme activity (procedure of U.S. Pat. No. 3,821,383, based on Hayman et al.)
Format: biochemical
Settings: partially purified aldose reductase from calf lens, / = results of duplicate tests; for inhibition at 100 µM: 10^-4 M
Text: Pat. No. 3,821,383 and based on the procedure of Hayman et. al., Journal of Biological Chemistry, 240, 877 (1965). The substrate employed was partially purified aldose reductase enzyme obtained from calf lens. The results obtained with each compound at a concentration of 10^-4 M are expressed as percent inhibition of enzyme activity.

inhibition at 100 µM [%] | % Inhibition at 10^-4 M (aldose reductase enzyme activity) [%] | SMILES
85 | 81 | O=C(O)C1CCOc2ccc(Cl)cc21 (stereo not drawn) [Example 12, 6-chloro-3,4-dihydro-2H-1-benzopyran-4-carboxylic acid]
88 | 90 | O=C(O)C1CCOc2c1cc(Cl)c1ccccc21 (stereo not drawn) [Example 14, 6-chloro-3,4-dihydro-2H-naphtho[1,2-b]pyran-4-carboxylic acid]
87 | 89 | Cc1cc(Cl)cc2c1OCCC2C(=O)O (stereo not drawn) [Example 6, 6-chloro-8-methyl-3,4-dihydro-2H-1-benzopyran-4-carboxylic acid]
92 | 76 | O=C(O)C1CCSc2cc(Cl)c(Cl)cc21 (stereo not drawn) [Example 4, 6,7-dichloro-3,4-dihydro-2H-1-benzothiopyran-4-carboxylic acid]
74 | 67 | O=C(O)C1CCOc2c(Cl)cc(-c3ccccc3)cc21 (stereo not drawn) [Example 2, 6-phenyl-8-chloro-3,4-dihydro-2H-1-benzopyran-4-carboxylic acid]
70 | – | O=C(O)C1CCSc2ccc(Cl)cc21 (stereo not drawn) [Example 16, 6-chloro-3,4-dihydro-2H-1-benzothiopyran-4-carboxylic acid]
82 | 89 | O=C(O)C1CCOc2c(Cl)cc(Cl)cc21 (stereo not drawn) [Example 8, 6,8-dichloro-3,4-dihydro-2H-1-benzopyran-4-carboxylic acid]
69 | – | O=C(O)CC1CCOc2ccc(Cl)cc21 (stereo not drawn) [Example 18, 6-chloro-3,4-dihydro-2H-1-benzopyran-4-acetic acid]
71 | – | O=C(O)C1CCOc2ccc(F)cc21 (stereo not drawn) [Example 10, 6-fluoro-3,4-dihydro-2H-1-benzopyran-4-carboxylic acid]
